Results: patent publication US8263606B2 (Xenon Pharmaceuticals Inc., priority 2008, dated 2012)

Experiments:
sodium channel = assay: Guanidine influx assay (14C-guanidine radiotracer flux, in vitro); type: cell-based, human or rat; settings: guanidine influx assay using a known cell line that expresses a sodium channel
Procedure, shortened: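 Aconitine holds channels open while 14C-guanidine enters human or rat sodium-channel-expressing cells in choline-substituted low-sodium saline, with test agent present at ambient temperature. Retained tracer is scintillation-counted and IC50 fitted by a four-parameter logistic model.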

CYP3A4 = CYP3A4 (Homo sapiens, UniProt P08684); assay: Cytochrome P450 (CYP450) Inhibition Assay, CYP3A4 (Vivid fluorescence, BOMCC substrate); settings: human, P450 Baculosomes (recombinant CYP3A4), probe BOMCC (Vivid substrate)
Sequence of CYP3A4 (P08684 whole entry): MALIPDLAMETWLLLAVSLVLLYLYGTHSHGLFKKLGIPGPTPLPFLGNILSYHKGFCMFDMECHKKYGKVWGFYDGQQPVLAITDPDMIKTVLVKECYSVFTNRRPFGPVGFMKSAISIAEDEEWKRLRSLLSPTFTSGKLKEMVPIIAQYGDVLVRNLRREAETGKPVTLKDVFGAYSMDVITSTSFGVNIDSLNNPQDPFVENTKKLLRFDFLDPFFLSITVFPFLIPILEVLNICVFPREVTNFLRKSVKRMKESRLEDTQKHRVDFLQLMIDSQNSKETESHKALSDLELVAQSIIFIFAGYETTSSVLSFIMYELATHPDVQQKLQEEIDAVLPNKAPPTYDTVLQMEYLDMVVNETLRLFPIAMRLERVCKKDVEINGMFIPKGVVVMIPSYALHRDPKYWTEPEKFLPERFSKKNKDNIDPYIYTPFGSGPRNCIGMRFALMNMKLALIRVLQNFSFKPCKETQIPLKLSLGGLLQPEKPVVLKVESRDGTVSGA

IC50 (sodium channel) [µM] | inhibition at 10 µM (CYP3A4) [%] | melting point [°C] | Compound
0.1 to 1 | > 50 | > 250 | O=C(NC1CCC1)c1ccc(CN2C(=O)C3(COc4cc5c(cc43)CCO5)c3ccccc32)cc1 (stereo not drawn) [Example 12.42, N-cyclobutyl-4-[(2-oxo-5,6-dihydrospiro[benzo[1,2-b:5,4-b′]difuran-3,3-indol]-1(2H)-yl)methyl]benzamide]
0.1 to 1 | < 50 | > 250 | O=C(Nc1nccs1)c1ccc(CN2C(=O)C3(COc4cc5c(cc43)CCO5)c3ccccc32)cc1 (stereo not drawn) [Example 12.43, 4-[(2′-oxo-5,6-dihydrospiro[benzo[1,2-b:5,4-b′]difuran-3,3′-indol]-1′(2′H)-yl)methyl]-N-1,3-thiazol-2-ylbenzamide]
1 to 10 | < 50 | 143 to 144 | Cc1c(F)cccc1NC(=O)c1ccc(CN2C(=O)C3(COc4cc5c(cc43)CCO5)c3ccccc32)cc1 (stereo not drawn) [Example 12.44, N-(3-fluoro-2-methylphenyl)-4-[(2′-oxo-5,6-dihydrospiro[benzo[1,2-b:5,4-b′]difuran-3,3′-indol]-1′(2′H)-yl)methyl]benzamide]
1 to 10 | < 50 | 211 to 213 | CCC(CC)CNC(=O)c1ccc(CN2C(=O)C3(COc4cc5c(cc43)CCO5)c3ccccc32)cc1 (stereo not drawn) [Example 12.45, N-(2-ethylbutyl)-4-[(2′-oxo-5,6-dihydrospiro[benzo[1,2-b:5,4-b′]difuran-3,3′-indol]-1′(2′H)-yl)methyl]benzamide]
0.1 to 1 | > 50 | 161 to 163 | CC(C)(C)CCNC(=O)CN1C(=O)C2(COc3cc4c(cc32)CCO4)c2ccccc21 (stereo not drawn) [Example 12.49, N-(3,3-dimethylbutyl)-2-(2′-oxo-5,6-dihydrospiro[benzo[1,2-b:5,4-b′]difuran-3,3′-indol]-1′(2′H)-yl)acetamide]
0.1 to 1 | > 50 | 149 to 151 | CC(C)OCCCNC(=O)CN1C(=O)C2(COc3cc4c(cc32)CCO4)c2ccccc21 (stereo not drawn) [Example 12.50, N-[3-(1-methylethoxy)propyl]-2-(2′-oxo-5,6-dihydrospiro[benzo[1,2-b:5,4-b′]difuran-3,3′-indol]-1′(2′H)-yl)acetamide]
0.1 to 1 | > 50 | 207 to 209 | CCCNC(=O)CN1C(=O)C2(COc3cc4c(cc32)CCO4)c2ccccc21 (stereo not drawn) [Example 12.51, 2-(2′-oxo-5,6-dihydrospiro[benzo[1,2-b:5,4-b′]difuran-3,3′-indol]-1′(2′H)-yl)-N-propylacetamide]
0.1 to 1 | > 50 | 234 to 238 | CN(C(=O)CN1C(=O)C2(COc3cc4c(cc32)CCO4)c2ccccc21)c1ccccc1 (stereo not drawn) [Example 12.52, N-methyl-2-(2′-oxo-5,6-dihydrospiro[benzo[1,2-b:5,4-b′]difuran-3,3′-indol]-1′(2′H)-yl)-N-phenylacetamide]
1 to 10 | < 50 | 250 to 252 | Cc1ccc(C)c(NC(=O)CN2C(=O)C3(COc4cc5c(cc43)CCO5)c3ccccc32)c1 (stereo not drawn) [Example 12.53, N-(2,5-dimethylphenyl)-2-(2′-oxo-5,6-dihydrospiro[benzo[1,2-b:5,4-b′]difuran-3,3′-indol]-1′(2′H)-yl)acetamide]
1 to 10 | > 50 | 277 to 279 | Cc1ccc(NC(=O)CN2C(=O)C3(COc4cc5c(cc43)CCO5)c3ccccc32)c(C)c1 (stereo not drawn) [Example 12.54, N-(2,4-dimethylphenyl)-2-(2′-oxo-5,6-dihydrospiro[benzo[1,2-b:5,4-b′]difuran-3,3′-indol]-1′(2′H)-yl)acetamide]
1 to 10 | > 50 | 251 to 253 | Cc1cccc(NC(=O)CN2C(=O)C3(COc4cc5c(cc43)CCO5)c3ccccc32)c1C (stereo not drawn) [Example 12.55, N-(2,3-dimethylphenyl)-2-(2′-oxo-5,6-dihydrospiro[benzo[1,2-b:5,4-b′]difuran-3,3′-indol]-1′(2′H)-yl)acetamide]
1 to 10 | > 50 | 261 to 262 | Cc1cccc(C)c1NC(=O)CN1C(=O)C2(COc3cc4c(cc32)CCO4)c2ccccc21 (stereo not drawn) [Example 12.56, N-(2,6-dimethylphenyl)-2-(2′-oxo-5,6-dihydrospiro[benzo[1,2-b:5,4-b′]difuran-3,3′-indol]-1′(2′H)-yl)acetamide]
0.1 to 1 | > 50 | 202 to 203 | CNC(=O)c1cc(CN2C(=O)C3(COc4cc5c(cc43)OCO5)c3ccccc32)oc1C(F)(F)F (stereo not drawn) [Example 12.57, N-methyl-5-[(2′-oxospiro[furo[2,3-f][1,3]benzodioxole-7,3′-indol]-1′(2′H)-yl)methyl]-2-(trifluoromethyl)furan-3-carboxamide]
0.001 to 0.1 | > 50 | 172 to 174 | NC(=O)c1cc(CN2C(=O)C3(COc4cc5c(cc43)OCO5)c3ccccc32)oc1C(F)(F)F (stereo not drawn) [Example 12.58, 5-[(2′-oxospiro[furo[2,3-f][1,3]benzodioxole-7,3′-indol]-1′(2′H)-yl)methyl]-2-(trifluoromethyl)furan-3-carboxamide]
0.1 to 1 | > 50 | 96 to 98 | CN(C)C(=O)c1cc(CN2C(=O)C3(COc4cc5c(cc43)OCO5)c3ccccc32)oc1C(F)(F)F (stereo not drawn) [Example 12.59, N,N-dimethyl-5-[(2′-oxospiro[furo[2,3-f][1,3]benzodioxole-7,3′-indol]-1′(2′H)-yl)methyl]-2-(trifluoromethyl)furan-3-carboxamide]
0.001 to 0.1 | > 50 | 236 to 238 | NC(=O)c1ccc(CN2C(=O)C3(COc4cc5c(cc43)OCCO5)c3ccccc32)cc1 (stereo not drawn) [Example 12.60, 4-[(2′-oxo-2,3-dihydrospiro[furo[2,3-g][1,4]benzodioxine-8,3′-indol]-1′(2′H)-yl)methyl]benzamide]
0.1 to 1 | > 50 | 130 to 135 | NC(=O)c1cccc(CN2C(=O)C3(COc4cc5c(cc43)OCCO5)c3ccccc32)c1 (stereo not drawn) [Example 12.61, 3-[(2′-oxo-2,3-dihydrospiro[furo[2,3-g][1,4]benzodioxine-8,3′-indol]-1′(2′H)-yl)methyl]benzamide]
0.1 to 1 | > 50 | 90 to 96 | CN(C)C(=O)c1cccc(CN2C(=O)C3(COc4cc5c(cc43)OCCO5)c3ccccc32)c1 (stereo not drawn) [Example 12.62, N,N-dimethyl-3-[(2′-oxo-2,3-dihydrospiro[furo[2,3-g][1,4]benzodioxine-8,3′-indol]-1′(2′H)-yl)methyl]benzamide]
0.1 to 1 | < 50 | 245 to 251 | O=C(Nc1ccccc1F)c1ccc(CN2C(=O)C3(COc4cc5c(cc43)OCCO5)c3ccccc32)cc1 (stereo not drawn) [Example 12.65, N-(2-fluorophenyl)-4-[(2′-oxo-2,3-dihydrospiro[furo[2,3-g][1,4]benzodioxine-8,3′-indol]-1′(2′H)-yl)methyl]benzamide]
0.001 to 0.1 | < 50 | 117 to 119 | O=C(CN1C(=O)C2(COc3cc4c(cc32)OCCO4)c2ccccc21)Nc1ccccc1F (stereo not drawn) [Example 13.7, N-(2-fluorophenyl)-2-(2′-oxo-2,3-dihydrospiro[furo[2,3-g][1,4]benzodioxine-8,3′-indol]-1′(2′H)-yl)acetamide]
0.1 to 1 | > 50 | 65 to 70 | O=C(NCCCN1C(=O)C2(COc3cc4c(cc32)CCO4)c2ccccc21)c1ccccc1OC(F)(F)F (stereo not drawn) [Example 13.11, N-[3-(2′-oxo-5,6-dihydrospiro[benzo[1,2-b:5,4-b′]difuran-3,3′-indol]-1′(2′H)-yl)propyl]-2-(trifluoromethoxy)benzamide]
0.1 to 1 | < 50 | 171 to 174 | C[C@H](O)CN1C(=O)C2(COc3cc4c(cc32)CCO4)c2ccccc21 (stereo partly drawn) [Example 14, 1′-[(2S)-2-hydroxypropyl]-5,6-dihydrospiro[benzo[1,2-b:5,4-b′]difuran-3,3′-indol]-2′(1′H)-one]
0.1 to 1 | > 50 | 45 to 47 | C[C@@H](CN1C(=O)C2(COc3cc4c(cc32)CCO4)c2ccccc21)OCc1ccccc1 (stereo partly drawn) [Example 14.1, 1′-[(2S)-2-(benzyloxy)propyl]-5,6-dihydrospiro[benzo[1,2-b:5,4-b′]difuran-3,3′-indol]-2′(1′H)-one]
0.1 to 1 | > 50 | 55 to 60 | C[C@@H](CN1C(=O)C2(COc3cc4c(cc32)CCO4)c2ccccc21)OCc1ccc(F)cc1 (stereo partly drawn) [Example 14.2, 1′-{(2S)-2-[(4-fluorobenzyl)oxy]propyl}-5,6-dihydrospiro[benzo[1,2-b:5,4-b′]difuran-3,3′-indol]-2′(1′H)-one]
1 to 10 | > 50 | 46 to 54 | C[C@@H](CN1C(=O)C2(COc3cc4c(cc32)CCO4)c2ccccc21)OCc1ccccn1 (stereo partly drawn) [Example 14.3, 1′-[(2S)-2-(pyridin-2-ylmethoxy)propyl]-5,6-dihydrospiro[benzo[1,2-b:5,4-b′]difuran-3,3′-indol]-2′(1′H)-one]
0.1 to 1 | < 50 | 64 to 66 | CC(O)CCN1C(=O)C2(COc3cc4c(cc32)CCO4)c2ccccc21 (stereo not drawn) [Example 14.4, 1′-(3-hydroxybutyl)-5,6-dihydrospiro[benzo[1,2-b:5,4-b′]difuran-3,3′-indol]-2′(1′H)-one]
